Reference: patent US11634393B2, “Substituted tolyl fungicides” (FMC CORPORATION, priority 2018, dated 2023)

How the values were obtained:
Phakopsora pachyrhizi = experiment: Test D: Asian soybean rust, spray on soybean seedlings, disease control rating; assay type: in vivo; details: Rate 10 ppm, 100 = 100% disease control, 0 = no disease control relative to the controls; for pest or weed control at 10 ppm: Phakopsora pachyrhizi, 216 h
Text: (§1) General protocol for preparing test suspensions for Tests A-F: the test compounds were first dissolved in acetone in an amount equal to 3% of the final volume and then suspended at the desired concentration (in ppm) in acetone and purified water (50/50 mix by volume) containing 250 ppm of the surfactant PEG400 (polyhydric alcohol esters). The resulting test suspensions were then used in Tests A-F.
The test solution was sprayed to the point of run-off on soybean seedlings. The following day the seedlings were inoculated with a spore suspension of Phakopsora pachyrhizi (the causal agent of Asian soybean rust) and incubated in a saturated atmosphere at 22° C. for 24 h and then moved to a growth chamber at 22° C. for 8 days, after which time visual disease ratings were made.
(§2) A rating of 100 indicates 100% disease control and a rating of 0 indicates no disease control (relative to the controls). A dash (-) indicates the compound was not tested.

[1] = tested on: Puccinia recondita f. sp. tritici; experiment: Test B: wheat leaf rust, spray on wheat seedlings, disease control rating; assay type: in vivo; details: Rate 10 ppm, 100 = 100% disease control, 0 = no disease control relative to the controls; for pest or weed control at 10 ppm: Puccinia recondita, 192 h
Text: as §1
The test solution was sprayed to the point of run-off on wheat seedlings. The following day the seedlings were inoculated with a spore suspension of Puccinia recondita f. sp. tritici (the causal agent of wheat leaf rust) and incubated in a saturated atmosphere at 20° C. for 24 h, and then moved to a growth chamber at 20° C. for 7 days, after which time disease ratings were made.
as §2

SMILES: COC(=O)NCc1cc(-c2ccn(-c3c(Cl)cccc3I)n2)ccc1C [Compound 59]
- pest or weed control at 10 ppm (Phakopsora pachyrhizi): 87%
- pest or weed control at 10 ppm [1]: 45%

SMILES: COC(=O)NCc1cc(-c2ccn(-c3c(Cl)cccc3Br)n2)ccc1C [Compound 60]
- pest or weed control at 10 ppm (Phakopsora pachyrhizi): 100%
- pest or weed control at 10 ppm [1]: 68%

SMILES: COC(=O)NCc1cc(-c2ccn(-c3c(C)cccc3Br)n2)ccc1C [Compound 61]
- pest or weed control at 10 ppm (Phakopsora pachyrhizi): 97%
- pest or weed control at 10 ppm [1]: 68%

SMILES: C=C(C)c1cc(F)c(-n2ccc(-c3ccc(C)c(CNC(=O)OC)c3)n2)c(F)c1 [Compound 62]
- Test D disease control rating (Phakopsora pachyrhizi): 100%
- Test B disease control rating [1]: 99%

SMILES: COC(=O)NCc1cc(-c2ccn(-c3c(Cl)cc(C4CC4)cc3Cl)n2)ccc1C [Compound 65, methyl N-[[5-[1-(2,6-dichloro-4-cyclopropylphenyl)-1H-pyrazol-3-yl]-2-methylphenyl]methyl]carbamate]
- pest or weed control at 10 ppm (Phakopsora pachyrhizi): 100%
- pest or weed control at 10 ppm [1]: 97%

SMILES: COC(=O)NCc1cc(-c2ccn(-c3c(F)cc(C=O)cc3F)n2)ccc1C [Compound 67, methyl N-[[5-[1-(2,6-difluoro-4-formylphenyl)-1H-pyrazol-3-yl]-2-methylphenyl]methyl]carbamate]
- pest or weed control at 10 ppm (Phakopsora pachyrhizi): 12%
- pest or weed control at 10 ppm [1]: 0%

SMILES: COC(=O)NCc1cc(-c2ccn(-c3c(F)cc(C(C)=O)cc3F)n2)ccc1C [Compound 68, methyl N-[[5-[1-(4-acetyl-2,6-difluorophenyl)-1H-pyrazol-3-yl]-2-methylphenyl]methyl]carbamate]
- pest or weed control at 10 ppm (Phakopsora pachyrhizi): 71%
- pest or weed control at 10 ppm [1]: 74%

SMILES: COC(=O)NCc1cc(-c2ccn(-c3c(F)cc(C(C)=NO)cc3F)n2)ccc1C [Compound 69]
- Test D disease control rating (Phakopsora pachyrhizi): 97%
- Test B disease control rating [1]: 99%

SMILES: COC(=O)NCc1cc(-c2ccn(-c3c(F)cc(C(=O)OC)cc3F)n2)ccc1C [Compound 70, methyl 3,5-difluoro-4-[3-[3-[[(methoxycarbonyl)amino]methyl]-4-methylphenyl]-1H-pyrazol-1-yl]benzoate]
- pest or weed control at 10 ppm (Phakopsora pachyrhizi): 81%
- pest or weed control at 10 ppm [1]: 74%

SMILES: COC(=O)NCc1cc(-c2ccn(-c3c(F)cc(CO)cc3F)n2)ccc1C [Compound 71, methyl N-[[5-[1-[2,6-difluoro-4-(hydroxymethyl)phenyl]-1H-pyrazol-3-yl]-2-methylphenyl]methyl]carbamate]
- pest or weed control at 10 ppm (Phakopsora pachyrhizi): 25%
- pest or weed control at 10 ppm [1]: 0%

SMILES: COC(=O)NCc1cc(-c2ccn(-c3c(F)cc(C=NO)cc3F)n2)ccc1C [Compound 72]
- Test D disease control rating (Phakopsora pachyrhizi): 77%
- Test B disease control rating [1]: 100%

SMILES: COC(=O)NCc1cc(-c2ccn(-c3c(F)cc(OCF)cc3F)n2)ccc1C [Compound 73]
- pest or weed control at 10 ppm (Phakopsora pachyrhizi): 100%
- pest or weed control at 10 ppm [1]: 100%

SMILES: COC(=O)NCc1cc(-c2ccn(-c3c(F)cc(CC(C)=O)cc3F)n2)ccc1C [Compound 75]
- Test D disease control rating (Phakopsora pachyrhizi): 87%
- Test B disease control rating [1]: 0%

SMILES: COC(=O)NCc1cc(-c2ccn(-c3c(F)cc(C(OC)C(C)=O)cc3F)n2)ccc1C (stereo not drawn) [Compound 76]
- Test D disease control rating (Phakopsora pachyrhizi): 100%
- Test B disease control rating [1]: 68%

SMILES: COC(=O)NCc1cc(-c2ccn(-c3c(F)cc(CF)cc3F)n2)ccc1C [Compound 77]
- pest or weed control at 10 ppm (Phakopsora pachyrhizi): 100%
- pest or weed control at 10 ppm [1]: 100%

SMILES: COC(=O)NCc1cc(-c2ccn(-c3c(F)cc(OC(F)(F)F)cc3F)n2)ccc1C [Compound 78, methyl N-[[5-[1-[2,6-difluoro-4-(trifluoromethoxy)phenyl]-1H-pyrazol-3-yl]-2-methylphenyl]methyl]carbamate]
- pest or weed control at 10 ppm (Phakopsora pachyrhizi): 100%
- pest or weed control at 10 ppm [1]: 100%

SMILES: CON=Cc1cc(F)c(-n2ccc(-c3ccc(C)c(CNC(=O)OC)c3)n2)c(F)c1 [Compound 79]
- Test D disease control rating (Phakopsora pachyrhizi): 100%
- Test B disease control rating [1]: 100%

SMILES: CCON=Cc1cc(F)c(-n2ccc(-c3ccc(C)c(CNC(=O)OC)c3)n2)c(F)c1 [Compound 80]
- Test D disease control rating (Phakopsora pachyrhizi): 100%
- Test B disease control rating [1]: 100%

SMILES: C=CCON=Cc1cc(F)c(-n2ccc(-c3ccc(C)c(CNC(=O)OC)c3)n2)c(F)c1 [Compound 81]
- Test D disease control rating (Phakopsora pachyrhizi): 100%
- Test B disease control rating [1]: 92%

SMILES: COC(=O)NCc1cc(-c2ccn(-c3c(F)cc(C=NOC(C)C)cc3F)n2)ccc1C [Compound 82]
- Test D disease control rating (Phakopsora pachyrhizi): 100%
- Test B disease control rating [1]: 95%

SMILES: CON=C(C)c1cc(F)c(-n2ccc(-c3ccc(C)c(CNC(=O)OC)c3)n2)c(F)c1 [Compound 83, methyl N-[[5-[1-[2,6-difluoro-4-[1-(methoxyimino)ethyl]phenyl]-1H-pyrazol-3-yl]-2-methylphenyl]methyl]carbamate]
- pest or weed control at 10 ppm (Phakopsora pachyrhizi): 100%
- pest or weed control at 10 ppm [1]: 100%

SMILES: CCON=C(C)c1cc(F)c(-n2ccc(-c3ccc(C)c(CNC(=O)OC)c3)n2)c(F)c1 [Compound 84]
- Test D disease control rating (Phakopsora pachyrhizi): 100%
- Test B disease control rating [1]: 100%

SMILES: C=CCON=C(C)c1cc(F)c(-n2ccc(-c3ccc(C)c(CNC(=O)OC)c3)n2)c(F)c1 [Compound 85]
- Test D disease control rating (Phakopsora pachyrhizi): 98%
- Test B disease control rating [1]: 90%

SMILES: COC(=O)NCc1cc(-c2ccn(-c3c(F)cc(C(C)=NOC(C)C)cc3F)n2)ccc1C [Compound 86]
- Test D disease control rating (Phakopsora pachyrhizi): 100%
- Test B disease control rating [1]: 99%

SMILES: COC(=O)NCc1cc(-c2ccn(-c3c(F)cc(C(F)F)cc3F)n2)ccc1C [Compound 87, methyl N-[[5-[1-[4-(difluoromethyl)-2,6-difluorophenyl]-1H-pyrazol-3-yl]-2-methylphenyl]methyl]carbamate]
- pest or weed control at 10 ppm (Phakopsora pachyrhizi): 100%
- pest or weed control at 10 ppm [1]: 100%

SMILES: COC(=O)NCc1cc(-c2ccn(-c3c(F)cc(C4CC4(Cl)Cl)cc3F)n2)ccc1C (stereo not drawn) [Compound 88]
- Test D disease control rating (Phakopsora pachyrhizi): 100%
- Test B disease control rating [1]: 100%

SMILES: COC(=O)NCc1cc(-c2ccn(-c3c(F)cc(OC4CCCC4)cc3F)n2)ccc1C [Compound 90]
- Test D disease control rating (Phakopsora pachyrhizi): 100%
- Test B disease control rating [1]: 86%

SMILES: COC(=O)NCc1cc(-c2ccn(-c3c(F)cc(OC4CCCCC4)cc3F)n2)ccc1C [Compound 91]
- Test D disease control rating (Phakopsora pachyrhizi): 79%
- Test B disease control rating [1]: 86%

SMILES: CCC(C)Oc1cc(F)c(-n2ccc(-c3ccc(C)c(CNC(=O)OC)c3)n2)c(F)c1 (stereo not drawn) [Compound 92]
- Test D disease control rating (Phakopsora pachyrhizi): 100%
- Test B disease control rating [1]: 100%

SMILES: COC(=O)NCc1cc(-c2ccn(-c3c(F)cc(OC(C)(C)C)cc3F)n2)ccc1C [Compound 93]
- Test D disease control rating (Phakopsora pachyrhizi): 100%
- Test B disease control rating [1]: 100%

SMILES: C=CCOc1cc(F)c(-n2ccc(-c3ccc(C)c(CNC(=O)OC)c3)n2)c(F)c1 [Compound 94]
- Test D disease control rating (Phakopsora pachyrhizi): 99%
- Test B disease control rating [1]: 85%

SMILES: COC(=O)NCc1cc(-c2ccn(-c3c(F)cc(C(C)(C)O)cc3F)n2)ccc1C [Compound 95]
- Test D disease control rating (Phakopsora pachyrhizi): 53%
- Test B disease control rating [1]: 0%

SMILES: COC(=O)NCc1cc(-c2ccn(-c3c(F)cc(C(C)O)cc3F)n2)ccc1C (stereo not drawn) [Compound 96]
- Test D disease control rating (Phakopsora pachyrhizi): 79%
- Test B disease control rating [1]: 68%

SMILES: COC(=O)NCc1cc(-c2ccn(-c3c(F)cc(C(C)(C)F)cc3F)n2)ccc1C [Compound 97]
- Test D disease control rating (Phakopsora pachyrhizi): 100%
- Test B disease control rating [1]: 100%

SMILES: COC(=O)NCc1cc(-c2ccn(-c3c(F)cc(OC4CC(F)(F)C4)cc3F)n2)ccc1C [Compound 98]
- Test D disease control rating (Phakopsora pachyrhizi): 100%
- Test B disease control rating [1]: 99%

SMILES: CON=C(C)c1cc(F)c(-n2ccc(-c3ccc(C)c(CNC(=O)OC)c3)n2)c(F)c1 [Compound 99]
- Test D disease control rating (Phakopsora pachyrhizi): 100%
- Test B disease control rating [1]: 100%

SMILES: COC(=O)NCc1cc(-c2cnn(-c3c(F)cc(CC(C)C)cc3F)n2)ccc1C [Compound 109]
- pest or weed control at 10 ppm (Phakopsora pachyrhizi): 100%
- pest or weed control at 10 ppm [1]: 91%

SMILES: C=C(C)c1cc(F)c(-n2ncc(-c3ccc(C)c(CNC(=O)OC)c3)n2)c(F)c1 [Compound 110]
- Test D disease control rating (Phakopsora pachyrhizi): 100%
- Test B disease control rating [1]: 95%

SMILES: COC(=O)NCc1cc(-c2cnn(-c3c(F)cc(Cl)cc3F)n2)ccc1C [Compound 117, methyl N-[[5-[2-(4-chloro-2,6-difluorophenyl)-2H-1,2,3-triazol-4-yl]-2-methylphenyl]methyl]carbamate]
- pest or weed control at 10 ppm (Phakopsora pachyrhizi): 100%
- pest or weed control at 10 ppm [1]: 100%

SMILES: COC(=O)NCc1cc(-c2cn(-c3c(OC)cc(OC)cc3OC)nn2)ccc1C [Compound 127]
- pest or weed control at 10 ppm (Phakopsora pachyrhizi): 0%
- pest or weed control at 10 ppm [1]: 0%

SMILES: COC(=O)NCc1cc(-c2ccn(-c3c(F)cc(C4OCCO4)cc3F)n2)ccc1C [Compound 133]
- pest or weed control at 10 ppm (Phakopsora pachyrhizi): 100%
- pest or weed control at 10 ppm [1]: 99%

SMILES: COC(=O)NCc1cc(-c2ccn(-c3c(F)cc(C4OCCCO4)cc3F)n2)ccc1C [Compound 134]
- pest or weed control at 10 ppm (Phakopsora pachyrhizi): 100%
- pest or weed control at 10 ppm [1]: 89%

SMILES: COC(=O)NCc1cc(-c2ccn(-c3c(Cl)cc(C(C)C)cc3Cl)n2)ccc1C [Compound 135]
- pest or weed control at 10 ppm (Phakopsora pachyrhizi): 100%
- pest or weed control at 10 ppm [1]: 86%

SMILES: COC(=O)NCc1cc(-c2ccn(-c3c(Br)cc(I)cc3Br)n2)ccc1C [Compound 136]
- pest or weed control at 10 ppm (Phakopsora pachyrhizi): 59%
- pest or weed control at 10 ppm [1]: 19%

SMILES: C=C(C)c1cc(Br)c(-n2ccc(-c3ccc(C)c(CNC(=O)OC)c3)n2)c(Br)c1 [Compound 137]
- Test D disease control rating (Phakopsora pachyrhizi): 77%
- Test B disease control rating [1]: 0%
